Test results from the SangsterLogP compilation.

experiment: method code SF, from DOI: 10.1016/0360-3016(89)90899-7, PMID: 2703405; conditions: pH 7.4

Row | SMILES | logD
1 | Nc1n[n+]([O-])c2ccccc2[n+]1[O-] | -0.3
2 | Cc1ccc2c(c1)[n+]([O-])nc(N)[n+]2[O-] | 0.2
3 | Nc1n[n+]([O-])c2ccc(Cl)cc2[n+]1[O-] | 0.41
4 | CC(=O)Nc1n[n+]([O-])c2ccccc2[n+]1[O-] | -0.6
5 | CC(=O)CC(=O)Nc1n[n+]([O-])c2ccccc2[n+]1[O-] | -1.4
6 | COc1ccc2c(c1)[n+]([O-])c(N)n[n+]2[O-] | 0
7 | CC(=O)Nc1n[n+]([O-])c2cc(C)ccc2[n+]1[O-] | -0.4
8 | COc1n[n+]([O-])c2ccccc2[n+]1[O-] | -0.3
9 | [O-][n+]1cn[n+]([O-])c2ccccc21 | -0.8
10 | Nc1n[n+]([O-])c2cc(OCC(O)CO)ccc2[n+]1[O-] (stereo unspecified) | -1.1
11 | C=CCOc1ccc2c(c1)[n+]([O-])nc(N)[n+]2[O-] | 0.76
